Test results taken from publication PMC11091072, “Targeting bacterial nickel transport with aspergillomarasmine A suppresses virulence-associated Ni-dependent enzymes” (Nature Communications, 2024).
In brackets after ≈: the same amount, converted by molar mass. Several values for one entry are separate records, joined by “and”; a condition that tells them apart may be missing. Identical values can stand only once. Like-named read-outs stand apart in the source and are kept apart here. Peptide text beside a SMILES is read from it. * marks the point of attachment. Cbz = O=C(OCc1ccccc1)*

Assays:
urease = biological target: T1, urease (Klebsiella pneumoniae subsp. pneumoniae, UniProt A6TE40+A6TE41+A6TE42); experiment: Urease activity in cell-free extracts (NH3 release, indophenol-hypochlorite); format: biochemical
T1 construct: endogenous in cells; host or cells: Klebsiella pneumoniae (ATCC 33495), sonicated and cleared lysate
Procedure: The cells were subsequently lysed by sonication, and cell debris was removed with centrifugation (20,000 × g, 10 min). […] Liberated NH3 was quantified using the indophenol-hypocholorite reaction as previously described. The total amount of protein was quantified by Bradford assay using bovine serum albumin as standard. Each assay was performed in duplicate wells.
FIG S7 Evaluation of Zn-AMA as a direct inhibitor of urease. A) Checkerboard analysis of Zn-AMA and AHA on urease activity of K. […]
Dose- […]
response curves of fluorofamide, Zn-AMA, and AMA inhibiting the urease-catalyzed release of NH3 quantified with indophenol hypochlorite. The rates of NH3 production were measured over 20 min and were normalized to total protein concentration. Experiments were performed in duplicate. Individual replicates are shown as colored circles.

HEK293 cells = experiment: HEK293 cytotoxicity assay (Cell Titer Glo 2.0)
[1] = tested on: K. pneumoniae urease activity (whole cell); experiment: microbe, parasite or virus in culture; format: cell-based, Klebsiella pneumoniae ATCC 33495; details: for EC50: Klebsiella pneumoniae, K. pneumoniae, artificial urine, read-out: EC50, half-maximal effective concentration required to suppress urease-dependent pH change
NikA = NikA (Klebsiella pneumoniae, UniProt A6TFA3); format: binding; details: for n (stoichiometry, ITC) / ∆H / −T∆S / ∆G: 37 °C; for n (stoichiometry, ITC) / ∆H / −T∆S / -∆TS / ∆G: pH 7.5; for -∆TS: Fig S13, 37 °C; for Kd: read-out: KD for NikA (ITC), 25 mM Tris-HCl, 150 mM NaCl, 0.1% Triton X-100, pH 7.5, 37 °C; for fold improvement of affinity for NikA: relative to Zn-AMA
NikA, sequence (A6TFA3 entry or part of it): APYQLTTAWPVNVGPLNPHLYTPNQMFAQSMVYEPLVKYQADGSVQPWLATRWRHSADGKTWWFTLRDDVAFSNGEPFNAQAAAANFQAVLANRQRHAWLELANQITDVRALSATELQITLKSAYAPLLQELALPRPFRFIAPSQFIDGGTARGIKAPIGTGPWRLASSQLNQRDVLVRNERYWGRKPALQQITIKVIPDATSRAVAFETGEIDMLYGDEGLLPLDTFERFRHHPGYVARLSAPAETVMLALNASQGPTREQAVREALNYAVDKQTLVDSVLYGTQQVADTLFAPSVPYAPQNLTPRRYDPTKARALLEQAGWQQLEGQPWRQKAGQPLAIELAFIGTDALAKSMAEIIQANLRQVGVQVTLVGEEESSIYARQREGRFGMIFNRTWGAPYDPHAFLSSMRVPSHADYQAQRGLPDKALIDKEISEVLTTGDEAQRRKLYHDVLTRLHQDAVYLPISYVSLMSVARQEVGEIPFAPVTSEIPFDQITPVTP

T1 sequence (A6TE41 whole entry): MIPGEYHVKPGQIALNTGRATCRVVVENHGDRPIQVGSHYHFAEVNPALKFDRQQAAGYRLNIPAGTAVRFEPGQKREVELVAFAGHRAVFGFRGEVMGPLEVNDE
T1 sequence (A6TE40 whole entry): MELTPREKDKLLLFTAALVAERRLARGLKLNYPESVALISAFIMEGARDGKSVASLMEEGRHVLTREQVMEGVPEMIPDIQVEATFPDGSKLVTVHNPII
T1 sequence (A6TE42 whole entry): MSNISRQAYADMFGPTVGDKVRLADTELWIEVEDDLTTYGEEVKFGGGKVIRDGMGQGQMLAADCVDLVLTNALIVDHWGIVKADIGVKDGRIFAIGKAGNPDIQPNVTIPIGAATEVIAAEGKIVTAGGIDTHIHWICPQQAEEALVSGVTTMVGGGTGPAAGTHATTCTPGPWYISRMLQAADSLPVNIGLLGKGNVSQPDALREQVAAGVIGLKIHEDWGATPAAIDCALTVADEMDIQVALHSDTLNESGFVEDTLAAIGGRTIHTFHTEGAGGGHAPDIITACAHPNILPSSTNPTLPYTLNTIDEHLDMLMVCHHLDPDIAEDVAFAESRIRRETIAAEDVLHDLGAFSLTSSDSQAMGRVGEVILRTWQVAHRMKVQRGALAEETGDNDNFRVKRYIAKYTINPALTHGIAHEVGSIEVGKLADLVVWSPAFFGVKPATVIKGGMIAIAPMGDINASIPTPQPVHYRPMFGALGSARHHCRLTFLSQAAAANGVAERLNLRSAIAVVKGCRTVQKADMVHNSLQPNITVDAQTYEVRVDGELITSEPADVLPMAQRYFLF

## NP(N)(=O)NC(=O)c1ccc(F)cc1 [fluorfamide, reference compound]
urease; Fluorofamide 0.000122 mM
  Specific activity (cell-free indophenol urease assay): 36.97 nmol/min/mg and 30.98 nmol/min/mg
urease; Fluorofamide 0.000244 mM
  Specific activity (cell-free indophenol urease assay): 36.32 nmol/min/mg and 35.04 nmol/min/mg
urease; Fluorofamide 0.000488 mM
  Specific activity (cell-free indophenol urease assay): 34.40 nmol/min/mg and 35.26 nmol/min/mg
urease; Fluorofamide 0.000977 mM
  Specific activity (cell-free indophenol urease assay): 30.98 nmol/min/mg and 33.12 nmol/min/mg
urease; Fluorofamide 0.001953 mM
  Specific activity (cell-free indophenol urease assay): 25.00 nmol/min/mg and 23.72 nmol/min/mg
urease; Fluorofamide 0.003906 mM
  Specific activity (cell-free indophenol urease assay): 16.88 nmol/min/mg
urease; Fluorofamide 0.007813 mM
  Specific activity (cell-free indophenol urease assay): 7.48 nmol/min/mg and 7.26 nmol/min/mg
urease; Fluorofamide 0.015625 mM
  Specific activity (cell-free indophenol urease assay): 2.56 nmol/min/mg and 2.35 nmol/min/mg
urease; Fluorofamide 0.03125 mM
  Specific activity (cell-free indophenol urease assay): 0.85 nmol/min/mg and 0.64 nmol/min/mg
urease; Fluorofamide 0.0625 mM
  Specific activity (cell-free indophenol urease assay): 0.21 nmol/min/mg

## CC(C)C[C@@H](C=O)NC(=O)[C@H](CC(C)C)NC(=O)[C@H](CC(C)C)NC(=O)OCc1ccccc1 [MG132, reference compound] (Cbz-Leu-Leu-Leu-aldehyde)
HEK293 cells; Homo sapiens, HEK293, 48 h, read-out: IC50 (HEK293 viability)
  IC50: 0.144 µg/mL (≈ 0.303 µM)
HEK293 cells; MG-132 0.06 μg/mL
  HEK 293T cytotoxicity assay raw signal: 553546 and 645337 and 439066
HEK293 cells; MG-132 0.12 μg/mL
  HEK 293T cytotoxicity assay raw signal: 287630 and 290638 and 251825
HEK293 cells; MG-132 0.24 μg/mL
  HEK 293T cytotoxicity assay raw signal: 228174 and 211174 and 145724
HEK293 cells; MG-132 0.49 μg/mL
  HEK 293T cytotoxicity assay raw signal: 127375 and 103739 and 100640
HEK293 cells; MG-132 0.98 μg/mL
  HEK 293T cytotoxicity assay raw signal: 76026 and 78297 and 72041
HEK293 cells; MG-132 1.95 μg/mL
  HEK 293T cytotoxicity assay raw signal: 47803 and 50917 and 47518
HEK293 cells; MG-132 7.81 μg/mL
  HEK 293T cytotoxicity assay raw signal: 52239 and 45457 and 61991
HEK293 cells; MG-132 15.63 μg/mL
  HEK 293T cytotoxicity assay raw signal: 62587 and 49620 and 71962
HEK293 cells; MG-132 31.25 μg/mL
  HEK 293T cytotoxicity assay raw signal: 50870 and 51533 and 85262

## N[C@@H](CN[C@@H](CN[C@@H](Cc1cnc[nH]1)C(=O)O)C(=O)O)C(=O)O.[Zn+2] [Zn-AMA(His)]
[1]
  Urease-dependent pH change (pH): 7.86 and 7.89 and 7.93 and 7.91
  EC50: > 200 µM
[1]; Zn-AMA(His) 0.19 μM
  Urease-dependent pH change (pH): 7.92 and 7.89
[1]; Zn-AMA(His) 0.39 μM
  Urease-dependent pH change (pH): 7.95 and 7.91
[1]; Zn-AMA(His) 3.12 μM
  Urease-dependent pH change (pH): 7.87 and 7.86
[1]; Zn-AMA(His) 6.25 μM
  Urease-dependent pH change (pH): 7.78 and 7.90
[1]; Zn-AMA(His) 12.5 μM
  Urease-dependent pH change (pH): 7.75 and 7.83
[1]; Zn-AMA(His) 25 μM
  Urease-dependent pH change (pH): 7.73 and 7.87
[1]; Zn-AMA(His) 50 μM
  Urease-dependent pH change (pH): 7.68 and 7.86
[1]; Zn-AMA(His) 100 μM
  Urease-dependent pH change (pH): 7.57 and 7.81
[1]; Zn-AMA(His) 200 μM
  Urease-dependent pH change (pH): 7.66 and 7.82
NikA
  n (stoichiometry, ITC): 0.76
  ∆H: -13.1 kcal/mol
  −T∆S: 4.5 kcal/mol
  -∆TS: 4.48
  Kd: 0.8 ± 0.1 µM
  fold improvement of affinity for NikA: 7 fold

## N[C@@H](CN[C@@H](CC(=O)O)C(=O)O)C(=O)O.[Zn+2] [Zn-Toxin A]
[1]; Zn-Toxin A 0.19 μM
  Urease-dependent pH change (pH): 7.83 and 7.80
[1]; Zn-Toxin A 0.39 μM
  Urease-dependent pH change (pH): 7.83 and 7.88
[1]; Zn-Toxin A 0.78 μM
  Urease-dependent pH change (pH): 7.88 and 7.78
[1]; Zn-Toxin A 1.56 μM
  Urease-dependent pH change (pH): 7.66 and 7.81
[1]; Zn-Toxin A 3.12 μM
  Urease-dependent pH change (pH): 7.79 and 7.72
[1]; Zn-Toxin A 6.25 μM
  Urease-dependent pH change (pH): 7.83 and 7.77
[1]; Zn-Toxin A 12.5 μM
  Urease-dependent pH change (pH): 7.84 and 7.79
[1]; Zn-Toxin A 25 μM
  Urease-dependent pH change (pH): 7.79 and 7.82
[1]; Zn-Toxin A 50 μM
  Urease-dependent pH change (pH): 7.77 and 7.81
[1]; Zn-Toxin A 100 μM
  Urease-dependent pH change (pH): 7.79 and 7.77
[1]; Zn-Toxin A 200 μM
  Urease-dependent pH change (pH): 7.66 and 7.69
NikA
  n (stoichiometry, ITC): 1.15
  ∆G: -7.4 kcal/mol
  ∆H: -9.6 kcal/mol
  −T∆S: 2.2 kcal/mol
  -∆TS: 2.20
  Kd: 6 ± 0.8 µM
NikA; listed as Zn-toxin A
  ∆G: -7.41 kcal/mol
  ∆H: -9.61 kcal/mol

## NC(=O)C[C@H](NC[C@H](NC[C@H](N)C(=O)O)C(=O)O)C(=O)O.[Zn+2] [Zn-AMA(Asn)]
[1]
  Urease-dependent pH change (pH): 7.81 and 7.93 and 7.88 and 7.95
  EC50: 24 ± 6 µM
[1]; Zn-AMA(Asn) 0.19 μM
  Urease-dependent pH change (pH): 7.83 and 7.99
[1]; Zn-AMA(Asn) 0.39 μM
  Urease-dependent pH change (pH): 7.94 and 7.95
[1]; Zn-AMA(Asn) 3.12 μM
  Urease-dependent pH change (pH): 7.74 and 7.82
[1]; Zn-AMA(Asn) 6.25 μM
  Urease-dependent pH change (pH): 7.67 and 7.74
[1]; Zn-AMA(Asn) 12.5 μM
  Urease-dependent pH change (pH): 7.43 and 7.67
[1]; Zn-AMA(Asn) 25 μM
  Urease-dependent pH change (pH): 7.11 and 7.36
[1]; Zn-AMA(Asn) 50 μM
  Urease-dependent pH change (pH): 6.62 and 7.12
[1]; Zn-AMA(Asn) 100 μM
  Urease-dependent pH change (pH): 6.33 and 6.91
[1]; Zn-AMA(Asn) 200 μM
  Urease-dependent pH change (pH): 6.43 and 6.83
NikA
  n (stoichiometry, ITC): 1.14
  ∆H: -13.1 kcal/mol
  −T∆S: 4.7 kcal/mol
  -∆TS: 4.73
  Kd: 1.3 ± 0.1 µM
  fold improvement of affinity for NikA: 7 fold
